Results on 32 compounds are retold here after patent US10246469B2, “Biaryl kinase inhibitors” (BRISTOL-MYERS SQUIBB COMPANY, priority 2015, dated 2019).

This assay deals with T1, GST-Xa-hAAK1 (Homo sapiens, UniProt Q2M2I8).
T1 construct: GST (N); Factor Xa cleavage site (Xa) (internal); made in house
In words: AAK1 Kinase Assay. The class given is biochemical. The note with it: bacterially expressed GST-Xa-hAAK1 3.5 nM; ATP 22 μM; fluoresceinated peptide 1.5 μM; 3 hours at room temperature; Caliper LabChip 3000. The procedure: The assays were performed in U-bottom 384-well plates. The final assay volume was 30 μl prepared from 15 μl additions of enzyme and substrates (fluoresceinated peptide (5-FAM)-Aha-[…]-NH2 and ATP) and test compounds in assay buffer (10 mM Tris-HCL pH 7.4, 10 mM MgCl2, 0.01% Tween-20 and 1.0 mM DTT). The reactions were initiated by the combination of bacterially expressed, GST-Xa-hAAK1 with substrates and test compounds. The reactions were incubated at room temperature for 3 hours and terminated by adding 60 μl of 35 mM EDTA buffer to each sample. The reactions were analyzed on the Caliper LabChip 3000 (Caliper, Hopkinton, Mass.) by electrophoretic separation of the fluorescent substrate and phosphorylated product. […] The final concentration of reagents in the assays are ATP, 22 μM; (5-FAM)-Aha-[…]-NH2, 1.5 μM; GST-Xa-hAAK1, 3.5 nM; and DMSO, 1.6%. […] Compounds were dissolved at 10 mM in dimethylsulfoxide (DMSO) and evaluated at eleven concentrations. IC50 values were derived by non-linear regression analysis.

T1 sequence (Q2M2I8 whole entry): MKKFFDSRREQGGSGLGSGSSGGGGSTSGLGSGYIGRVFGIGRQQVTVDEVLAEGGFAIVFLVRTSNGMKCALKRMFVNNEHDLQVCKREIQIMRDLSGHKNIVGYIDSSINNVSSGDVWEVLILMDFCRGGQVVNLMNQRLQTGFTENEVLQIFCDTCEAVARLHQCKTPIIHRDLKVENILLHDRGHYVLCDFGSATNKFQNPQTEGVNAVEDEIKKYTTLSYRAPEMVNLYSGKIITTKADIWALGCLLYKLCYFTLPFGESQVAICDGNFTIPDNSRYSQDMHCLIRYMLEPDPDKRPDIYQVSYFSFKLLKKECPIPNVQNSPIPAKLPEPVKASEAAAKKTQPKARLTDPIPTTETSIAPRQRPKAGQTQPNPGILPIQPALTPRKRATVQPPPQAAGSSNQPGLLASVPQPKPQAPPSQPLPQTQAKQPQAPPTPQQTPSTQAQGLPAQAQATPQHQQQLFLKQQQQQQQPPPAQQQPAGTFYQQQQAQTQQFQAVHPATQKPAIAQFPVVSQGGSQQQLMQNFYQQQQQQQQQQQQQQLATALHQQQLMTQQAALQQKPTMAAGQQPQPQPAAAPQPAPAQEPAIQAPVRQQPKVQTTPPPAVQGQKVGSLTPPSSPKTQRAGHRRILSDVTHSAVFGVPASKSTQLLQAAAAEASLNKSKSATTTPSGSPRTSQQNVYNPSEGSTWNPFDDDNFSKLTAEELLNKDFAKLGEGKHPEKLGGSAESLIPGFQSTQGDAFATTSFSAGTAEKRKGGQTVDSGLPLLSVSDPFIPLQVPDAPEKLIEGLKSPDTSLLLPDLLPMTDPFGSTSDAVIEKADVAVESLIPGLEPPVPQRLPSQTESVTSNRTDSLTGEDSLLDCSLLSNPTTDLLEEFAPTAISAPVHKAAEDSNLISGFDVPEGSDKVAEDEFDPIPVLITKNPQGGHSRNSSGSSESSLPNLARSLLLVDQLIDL

With `CC(C)C[C@](C)(N)COc1ccc(-c2cc(Cl)nn3cc(C4CC4)nc23)cc1C(F)(F)F` [Example 496, (S)-1-(4-(6-chloro-2-cyclopropylimidazo [1,2-b]pyridazin-8-yl)-2-(trifluoromethyl)phenoxy)-2,4-dimethylpentan-2-amine], the IC50 was 297 nM.
The same measure for `Cc1cn2nccc(-c3ccc(OC[C@@](C)(N)CC(C)C)c(F)c3)c2n1` [Example 497, (S)-1-(2-fluoro-4-(2-methylimidazo [1,2-b]pyridazin-8-yl)phenoxy)-2,4-dimethylpentan-2-amine]: 11 nM.
To `CC(C)C[C@](C)(N)COc1ccc(-c2ccnc(Nc3ccc4c(c3)OCO4)c2)cc1C(F)(F)F` [Example 412, (S)-4-(4-((2-amino-2,4-dimethylpentyl)oxy)-3-(trifluoromethyl)phenyl)-N-(benzo[d][1,3]dioxol-5-yl) pyridin-2-amine] belongs 6.4 nM; to `Cc1n[nH]c(C)c1-c1ccc(OC[C@@](C)(N)CC(C)C)c(F)c1` [Example 251, (S)-1-(4-(3,5-dimethyl-1H-pyrazol-4-yl)-2-fluorophenoxy)-2,4-dimethylpentan-2-amine], 310 nM.
As to `CC(C)C[C@](C)(N)COc1ccc(-c2ccnc(NC(=O)C3CC3)c2)cc1C(F)(F)F` [Example 389, (S)—N-(4-(4-((2-amino-2,4-dimethylpentyl)oxy)-3-(trifluoromethyl)phenyl)pyridin-2-yl)cyclopropanecarboxamide], the IC50 was 0.3 nM.
Turning to `CC(C)C[C@](C)(N)COc1ccc(-c2cc(NC3CCOC3)ncn2)cc1C(F)(F)F` (stereo partly drawn) [Example 448, 6-(4-(((S)-2-amino-2,4-dimethylpentyl)oxy)-3-(trifluoromethyl)phenyl)-N-(tetrahydrofuran-3-yl)pyrimidin-4-amine], the IC50 stood at 399 nM.
Regarding `Cc1cc(-c2ccnc(Nc3nccs3)n2)ccc1OC[C@@](C)(N)CC(C)C` [Example 368, (S)—N-(4-(4-((2-amino-2,4-dimethylpentyl)oxy)-3-methylphenyl)pyrimidin-2-yl)thiazol-2-amine], the IC50 came to 0.3 nM.
To `Cc1cc(-c2ccnc3cc(C4CC4)nn23)cnc1OC[C@](C)(N)CC(C)C` [Example 266, (R)-1-((5-(2-cyclopropylpyrazolo[1,5-a]pyrimidin-7-yl)-3-methylpyridin-2-yl)oxy)-2,4-dimethylpentan-2-amine] belongs 265 nM; to `CC(C)C[C@](C)(N)COc1ccc(-c2ccnn3cc(C4CC4)nc23)cc1F` [Example 493, (S)-1-(4-(2-cyclopropylimidazo[1,2-b]pyridazin-8-yl)-2-fluorophenoxy)-2,4-dimethylpentan-2-amine], 15 nM; to `CC(=O)Nc1cc(-c2ccc(OC[C@@](C)(N)CC(C)C)c(F)c2)n2nccc2n1` [Example 463, (S)—N-(7-(4-((2-amino-2,4-dimethylpentyl)oxy)-3-fluorophenyl)pyrazolo [1,5-a]pyrimidin-5-yl) acetamide], 184 nM.
The same measure for `CC(=O)NCC(=O)Nc1cc(-c2ccc(OC[C@@](C)(N)CC(C)C)c(C(F)(F)F)c2)ccn1` [Example 402, (S)-2-acetamido-N-(4-(4-((2-amino-2,4-dimethylpentyl)oxy)-3-(trifluoromethyl)phenyl)pyridin-2-yl)acetamide]: 0.5 nM; for `CC(C)C[C@](C)(N)COc1ccc(-c2ccnc3ccnn23)nc1C(F)F` [Example 322, (S)-1-((2-(difluoromethyl)-6-(pyrazolo[1,5-a]pyrimidin-7-yl)pyridin-3-yl)oxy)-2,4-dimethylpentan-2-amine]: 0.4 nM; for `CC(C)C[C@](C)(N)COc1ccc(-c2ccnc3[nH]ncc23)cc1C(F)(F)F` [Example 292, (S)-1-(4-(1H-pyrazolo[3,4-b]pyridin-4-yl)-2-(trifluoromethyl)phenoxy)-2,4-dimethylpentan-2-amine]: 0.4 nM.
For the compound `Cc1cc(-c2ccnc3ccn(C)c23)ccc1OC[C@@](C)(N)CC(C)C` [Example 427, (S)-2,4-dimethyl-1-(2-methyl-4-(1-methyl-1H-pyrrolo[3,2-b]pyridin-7-yl)phenoxy)pentan-2-amine], the IC50 was found to be 1740 nM.
The same measure for `Cc1cc(C(=O)Nc2cc(-c3ccc(OC[C@@](C)(N)CC(C)C)c(C(F)(F)F)c3)ccn2)no1` [Example 408, (S)—N-(4-(4-((2-amino-2,4-dimethylpentyl)oxy)-3-(trifluoromethyl)phenyl)pyridin-2-yl)-5-methylisoxazole-3-carboxamide]: 0.5 nM; for `CC(C)C[C@](C)(N)COc1ccc(-c2ccnc3c2C(=O)N(C)C3)cc1Cl` [Example 429, (S)-4-(4-((2-amino-2,4-dimethylpentyl)oxy)-3-chlorophenyl)-6-methyl-6,7-dihydro-5H-pyrrolo[3,4-b]pyridin-5-one]: 36 nM; for `CC(C)C[C@](C)(N)COc1ccc(-c2cnn3cccnc23)cc1C(F)(F)F` [Example 473, (S)-2,4-dimethyl-1-(4-(pyrazolo[1,5-a]pyrimidin-3-yl)-2-(trifluoromethyl)phenoxy)pentan-2-amine]: 112 nM.
To `CC(C)C[C@](C)(N)COc1ccc(-c2ncnc3[nH]ccc23)cc1C#N` [Example 362, (S)-2-((2-amino-2,4-dimethylpentyl)oxy)-5-(7H-pyrrolo[2,3-d]pyrimidin-4-yl)benzonitrile] belongs 1 nM.
The same measure for `CC(C)C[C@](C)(N)COc1ccc(-c2ccnc3c2cnn3C)cc1F` [Example 289, (5)-1-(2-fluoro-4-(1-methyl-1H-pyrazolo[3,4-b]pyridin-4-yl)phenoxy)-2,4-dimethylpentan-2-amine]: 58 nM.
`Cc1cc(-c2ccnc(NC3CCOC3)c2)ccc1OC[C@@](C)(N)CC(C)C` (stereo partly drawn) [Example 346, 4-(4-(((S)-2-amino-2,4-dimethylpentyl)oxy)-3-methylphenyl)-N-(tetrahydrofuran-3-yl)pyridin-2-amine]: the 50% inhibitory concentration (IC50) was determined as 23 nM.
To `CC(C)C[C@](C)(N)COc1ccc(-c2ccnc3ccnn23)cc1C#N` [Example 460, (S)-2-((2-amino-2,4-dimethylpentyl)oxy)-5-(pyrazolo[1,5-a]pyrimidin-7-yl)benzonitrile] belongs 0.6 nM; to `CC(C)C[C@](C)(N)COc1ccc(-c2ccnc3[nH]ncc23)cc1Cl` [Example 284, (S)-1-(2-chloro-4-(1H-pyrazolo[3,4-b]pyridin-4-yl)phenoxy)-2,4-dimethylpentan-2-amine], 0.6 nM.
For `CCN1Cc2nccc(-c3ccc(OC[C@@](C)(N)CC(C)C)c(C(F)(F)F)c3)c2C1=O` [Example 418, (S)-4-(4-((2-amino-2,4-dimethylpentyl)oxy)-3-(trifluoromethyl)phenyl)-6-ethyl-6,7-dihydro-5H-pyrrolo[3,4-b]pyridin-5-one], the IC50 was 29 nM.
`CC(C)C[C@](C)(N)COc1ccc(-c2ccnc(NC(=O)c3cccs3)c2)cc1C(F)(F)F` [Example 403, (S)—N-(4-(4-((2-amino-2,4-dimethylpentyl)oxy)-3-(trifluoromethyl)phenyl)pyridin-2-yl)thiophene-2-carboxamide]: the 50% inhibitory concentration (IC50) was determined as 0.5 nM.
The same measure for `CC(C)C[C@](C)(N)COc1ccc(-c2ccnn3cc(C(F)(F)F)nc23)cc1` [Example 501, (S)-2,4-dimethyl-1-(4-(2-(trifluoromethyl)imidazo[1,2-b]pyridazin-8-yl)phenoxy)pentan-2-amine]: 69 nM.
On to `CC(C)C[C@](C)(N)COc1ncc(-c2cc(NC3CCOC3)ncn2)cc1Cl` (stereo partly drawn) [Example 449, 6-(6-(((S)-2-amino-2,4-dimethylpentyl)oxy)-5-chloropyridin-3-yl)-N-(tetrahydrofuran-3-yl)pyrimidin-4-amine], for which the IC50 came to 352 nM.
`CC(C)C[C@](C)(N)COc1ccc(-c2cc(N)nc3ccnn23)cc1F` [Example 457, (S)-7-(4-((2-amino-2,4-dimethylpentyl)oxy)-3-fluorophenyl)pyrazolo[1,5-a]pyrimidin-5-amine]: the IC50 came to 160 nM.
For `CC(C)C[C@](C)(N)COc1ccc(-c2ccnc3c2C(=O)N(C)C3)cc1C#N` [Example 414, (S)-2-((2-amino-2,4-dimethylpentyl)oxy)-5-(6-methyl-5-oxo-6,7-dihydro-5H-pyrrolo[3,4-b]pyridin-4-yl)benzonitrile], the IC50 stood at 47 nM.
For the compound `CC(C)C[C@](C)(N)COc1ccc(-c2ccnn3ccnc23)cc1C(F)(F)F` [Example 283, (S)-1-(4-(imidazo[1,2-b]pyridazin-8-yl)-2-(trifluoromethyl)phenoxy)-2,4-dimethylpentan-2-amine], the IC50 was determined as 0.4 nM.
As to `Cc1nc(-c2ccc(OC[C@@](C)(N)CC(C)C)c(C(F)(F)F)c2)c2ccsc2n1` [Example 481, (S)-2,4-dimethyl-1-(4-(2-methylthieno[2,3-d]pyrimidin-4-yl)-2-(trifluoromethyl)phenoxy)pentan-2-amine], the IC50 was determined as 52 nM.
With `CC(C)C[C@](C)(N)COc1ccc(-c2ccnc(NC3CCOCC3)c2)cc1C#N` [Example 468, (S)-2-(2-amino-2,4-dimethylpentyloxy)-5-(2-(tetrahydro-2H-pyran-4-ylamino)pyridin-4yl)benzonitrile], the IC50 was determined as 54 nM.
As for `CC(C)C[C@](C)(N)COc1ccc(-c2ncnc3[nH]ccc23)cc1Cl` [Example 361, (S)-1-(2-chloro-4-(7H-pyrrolo[2,3-d]pyrimidin-4-yl)phenoxy)-2,4-dimethylpentan-2-amine], the IC50 came to 1.7 nM.
